Assay results from US20150183846A1, “HUMAN FUSION PROTEINS COMPRISING SINGLE CHAIN TNFALPHA AND TARGETING DOMAINS” (Scil Proteins GmbH, priority 2012, published 2015).
“Also recorded” adds a separate entry of the source.

Experiments:
[1] = tested on: MDA-MB 231 tumor; assay: In vivo efficacy study in breast cancer (MDA-MB 231) tumor bearing mice, combination with Lipodox; design: species or system mouse
Text: The efficacy study is intended to analyze the effect of targeted fusion protein 83564 combined with a chemotherapeutic on the tumor size in a breast cancer model. As model system for the in vivo efficacy study, the breast cancer cell line MDA-MB 231 (ATCC® HTB-26™; patient derived model, obtained from ATCC) was used. Cells were implanted subcutaneously in the left flank of female immunodeficient NMRI nu/nu mice from Harlan. For this study, Lipodox was used as exemplary cytotoxic drug; any other cytotoxic agents could be used instead. The chemotherapeutic Lipodox from Sun Pharma Global FZE is composed of doxorubicin hydrochloride encapsulated in long circulating pegylated liposomes. It is indicated as monotherapy for the treatment of metastatic breast cancer with increased cardiac risk.
In order to show the efficacy of Affilin-scTNFalpha-fusion protein 83564, mice carrying an MDA-MB 231 tumor with an initial size between 50 mm^3 and 200 mm^3 were intravenously treated with 75 μg/kg/day 83564 combined with Lipodox at a dose of 1.5 mg/kg/day (closed squares in FIG. 8). As control substance, 75 μg/kg/day 64179 (Affilin-scTNFalpha-fusion protein without targeting) combined with Lipodox at a dose of 1.5 mg/kg/day was injected intravenously into separate mice (closed circles in FIG. 8). […] During the whole efficacy study, the relative tumor volume was analyzed.

[2] = tested on: F9-tumor tissue; assay: Binding on F9 teratocarcinoma tumor slices; design: species or system mouse
Description: ED-B accumulates around neovascular structures, like tumor blood vessels (Tarli et al., 1999, Blood 94: 192-198). Different concentrations of fusion proteins were compared with respect to ED-B target binding on F9 teratocarcinoma slides. Slices of a thickness of 6 μm were fixed with ice cold absolute acetone. After blocking with 5% horse serum, slices were incubated with 1, 5 and 10 nM of fusion proteins 64177, 83563, 83564 and the non-ED-B targeted protein 64179, respectively. Fusion proteins were probed by anti-TNFalpha-antibody (Peprotech 500-P64, 1:500) and additional with a secondary Alexa488 conjugated antibody (Invitrogen, A11008, 1:1000). CD31 (PECAM-1) is a widely used endothelial cell marker. Therefore, vessels were stained by use of an anti-mouse CD31-antibody (10 μg/ml; Abcam, ab56299) and an Alexa594-conjugated secondary antibody.

[3] = tested on: L929 cells; assay: L929 apoptosis (cytotoxicity) assay of TNFalpha activity; type: cell-based; details: actinomycin D sensitized cells, 24 h
Text: The physiological TNFalpha-activity of an Affilin-scTNF-fusion protein has been determined using the L929 apoptosis assay (Flick et al., 1984 J. Immunol. Methods. 68:167-175). In this assay, the effector part of the fusion protein (scTNFalpha, three soluble TNFalpha monomers connected via peptide linkers) efficiently stimulates cell death in actinomycin D sensitized cells at EC50 values in the picomolar range.
Cells were resuspended in suitable medium containing FBS and antibiotics. A cell suspension of a density of 3.5×10^5 cells/ml in medium containing 2% FCS was seeded into the wells of a 96 well standard cell culture plate. After incubation, the culture medium was removed and medium containing 4% FBS, Actinomycin D and antibiotics was added to each well. […] After a further incubation of 24 h, the metabolic activity as a measure of cell survival was determined using WST-1 reagent (Roche). […] The quantitative evaluation is based on the relative potency against a mTNFalpha-standard.
In this embodiment, an L929 assay was used as activity assay versus mouse TNFalpha as internal standard (mTNFalpha in the figure). […] Potency has been determined in several independent assays and is determined by parallel line method with PLA2.0 software relative to the internal control mTNFalpha. […]

[4] = tested on: Wi38 cells; assay: Binding (staining) on vital Wi38 fibroblast cells; type: cell-based, human; details: Wi38 cells (high ED-B), up to 10 nM, anti-TNFalpha-antibody detection
Description: (§1) ED-B is expressed in tumors and the matrix on embryonic cells. The binding of the cancer target-binding protein fused to scTNFalpha to the matrix of cell culture cells was compared to the binding of the control and non-targeting domain protein fused to scTNFalpha (64179). Different cell culture cells were analyzed, including normal human fetal lung fibroblast cells having high expression levels of ED-B (Wi38 cells), and normal human dermal fibroblasts having low level of ED-B (NHDF). To analyze the in vitro binding, 64177, 83563, 83564 and 64179 were investigated on vital Wi38 cells.
(§2) Fusion proteins (single concentration of 1, 5 and 10 nM) or control protein 64179 (1, 5 and 10 nM) were incubated (1 h, 37° C.) with Wi38 and NHDF cells (60,000 cells/ml; from ATCC), followed by fixation with methanol, blocking (5% Horse serum/PBS); incubation with an anti-TNFalpha-antibody (Peprotech 500-P64, 1:500) and additionally with a secondary Alexa488 conjugated antibody (obtained from Invitrogen A11008, 1:1000). The nuclei were stained with DAPI.

[5] = tested on: NHDF cells; assay: Binding (staining) on vital NHDF cells; type: cell-based, human; details: NHDF cells (low ED-B), up to 10 nM
Description: as §1, §2

[6] = In vivo toxicity study in naive CD1 mice, single intravenous dose; details: i.v., mTNFalpha 470 μg/kg equimolar to 650 μg/kg 64177
Description: Two groups of 3 male and 3 female mice for each treatment dose were recruited. One group of 3 male and 3 female mice for each treatment dose was sacrificed 24 h after the intravenous administration to obtain information on acute TNFalpha mediated effects. […] Parameters that were analyzed are: clinical signs (local tolerance, systemic tolerance, mortality, behavior, external appearance, faeces), body weight, body temperature, food consumption, hematology, clinical chemistry, macroscopic post mortem findings, organ weights and histopathology of dedicated organs.

| Substance | relative tumor volume at day 28 ([1]; 75 μg/kg/day fusion protein i.v. combined with Lipodox 1.5 mg/kg/day) [mm^3] | effect on tumor growth compared with the other groups ([1]; fusion protein combined with Lipodox 1.5 mg/kg/day) | accumulation close to F9-tumor vessels (co-staining with anti-CD31) ([2]; 1 nM fusion protein) | binding on F9-tumor tissue slices ([2]; 1 nM, 5 nM and 10 nM) | activity of the scTNFalpha part relative to mouse TNFalpha internal standard [3] | staining of ED-B on vital Wi38 cells [4] | staining on vital NHDF cells [5] | incidence and/or severity of toxic effects, mTNFalpha- versus 64177-treated animals [6] |
| --- | --- | --- | --- | --- | --- | --- | --- | --- |
| 64179: control fusion protein of a non-binding ubiquitin dimer (Ub2) and mouse scTNFalpha (SEQ ID NO: 16) [compound 64179, reference compound] | 651 | had the effect on growth of breast cancer as Lipodox alone | no accumulation in F9-tumor vessels | not detected | at least the same activity compared to the mouse TNFalpha | No unspecific staining; also recorded: not detectable | not detectable |  |
| mTNFalpha: murine recombinant TNFalpha used as internal standard and reference item [reference compound] |  |  |  |  |  |  |  | generally more pronounced |
